Assays:
[1] = system: CDK8 (phosphorylation of STAT1 at serine 727 in A549 cells); test: Cell based Phospho-STAT1 assay (IFNγ-stimulated A549 cells, AlphaLISA); conditions: Homo sapiens, A549, A549 cells, phospho-STAT1 after IFNγ stimulation
Procedure, shortened: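 A549 cells given serial compound dilutions for 1 h at 37 °C, then stimulated with IFNγ at 10 ng/mL final for 30 min. Lysate STAT1 Ser727 phosphorylation measured by AlphaLISA; % inhibition vs stimulated/unstimulated DMSO controls, IC50 by nonlinear regression.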

[2] = system: CDK8 (TCF/LEF luciferase reporter in HCT116 cells); test: Cell based TCF/LEF reporter assay (HCT116+TCF/LEF luciferase); conditions: Homo sapiens, HCT-116, 24 h
Procedure, shortened: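 HCT116 cells stably carrying a TCF/LEF-luciferase reporter (endogenous mutant β-catenin), seeded overnight, then exposed to serial compound dilutions for 24 h at 37 °C. Luminescence normalized to CellTiter-Fluor viability signal. % inhibition relative to DMSO and 10 uM CCT251545 controls, with IC50 from nonlinear regression.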

IC50 [1] [nM]	IC50 [2] [nM]	SMILES
0.1 to 100	0.1 to 100	CC(C)(O)Cn1cc(-c2ccc(-c3cnc4[nH]ccc4c3C3=CCC(C#N)CC3)cc2F)cn1 (centres unmarked) [Compound P-0132, 4-(5-(3-fluoro-4-(1-(2-hydroxy-2-methylpropyl)-1H-pyrazol-4-yl)phenyl)-1H-pyrrolo[2,3-b]pyridin-4-yl)cyclohex-3-ene-1-carbonitrile]
0.1 to 100	0.1 to 100	N#CC1CC=C(c2cccn3ncc(-c4ccc(N5CCOCC5)c(F)c4)c23)CC1 (centres unmarked) [Compound P-0125, 4-(3-(3-fluoro-4-morpholinophenyl)pyrazolo[1,5-a]pyridin-4-yl)cyclohex-3-ene-1-carbonitrile]
0.1 to 100	100 to 1000	Cn1cc(-c2ccc(-c3cnn4cccc(C#C[C@@](C)(O)c5ccccc5)c34)cc2)cn1 [Compound P-0246, (S)-4-(3-(4-(1-methyl-1H-pyrazol-4-yl)phenyl)pyrazolo[1,5-a]pyridin-4-yl)-2-phenylbut-3-yn-2-ol]
0.1 to 100	0.1 to 100	Cn1cc(-c2ccc(-c3cnn4cccc(C#CC5(O)CCC5)c34)cc2)cn1 [Compound P-0310, 1-((3-(4-(1-methyl-1H-pyrazol-4-yl)phenyl)pyrazolo[1,5-a]pyridin-4-yl)ethynyl)cyclobutan-1-ol]
0.1 to 100	0.1 to 100	N#CC1CCC(c2nccn3ncc(-c4ccc(-c5cnn(CC(F)F)c5)cc4)c23)CC1 (centres unmarked) [Compound P-0021, (1s,4s)-4-(3-(4-(1-(2,2-difluoroethyl)-1H-pyrazol-4-yl)phenyl)pyrazolo[1,5-a]pyrazin-4-yl)cyclohexane-1-carbonitrile]
0.1 to 100	0.1 to 100	Cn1cc(-c2ccc(-c3cnn4cccc(C#CC(C)(C)C#N)c34)cc2)cn1 [Compound P-0273, 2,2-dimethyl-4-(3-(4-(1-methyl-1H-pyrazol-4-yl)phenyl)pyrazolo[1,5-a]pyridin-4-yl)but-3-ynenitrile]
0.1 to 100	0.1 to 100	CC(C)(C#Cc1cccn2ncc(-c3ccc(-c4cnn(CCS(C)(=O)=O)c4)cc3)c12)C(N)=O [Compound P-0464, 2,2-dimethyl-4-(3-(4-(1-(2-(methylsulfonyl)ethyl)-1H-pyrazol-4-yl)phenyl)pyrazolo[1,5-a]pyridin-4-yl)but-3-ynamide]
0.1 to 100	0.1 to 100	CC(C)(O)Cn1ncc2cc(-c3cnn4ccnc(C5=CCC(C#N)CC5)c34)ccc21 (centres unmarked) [Compound P-0111, 4-(3-(1-(2-hydroxy-2-methylpropyl)-1H-indazol-5-yl)pyrazolo[1,5-a]pyrazin-4-yl)cyclohex-3-ene-1-carbonitrile]
100 to 1000	100 to 1000	Cc1cc(C)n(-c2ccc(-c3cnn4cccc(N5CCC(C#N)CC5)c34)cc2)n1 [Compound P-0253, 1-(3-(4-(3,5-dimethyl-1H-pyrazol-1-yl)phenyl)pyrazolo[1,5-a]pyridin-4-yl)piperidine-4-carbonitrile]
0.1 to 100	0.1 to 100	N#CC1CC=C(c2cccc3ncc(-c4ccc(-c5cnn(C(F)F)c5)cc4)n23)CC1 (centres unmarked) [Compound P-0438, 4-(3-(4-(1-(difluoromethyl)-1H-pyrazol-4-yl)phenyl)imidazo[1,2-a]pyridin-5-yl)cyclohex-3-ene-1-carbonitrile]
0.1 to 100	0.1 to 100	CCn1cc(-c2ccc(-c3cnc4[nH]ccc4c3N3CCC(C#N)CC3)cc2)cn1 [Compound P-0173, 1-(5-(4-(1-ethyl-1H-pyrazol-4-yl)phenyl)-1H-pyrrolo[2,3-b]pyridin-4-yl)piperidine-4-carbonitrile]
0.1 to 100	0.1 to 100	COc1ccc2cc(-c3cnn4ccnc(C5=CCC(C#N)CC5)c34)ccc2n1 (centres unmarked) [Compound P-0147, 4-(3-(2-methoxyquinolin-6-yl)pyrazolo[1,5-a]pyrazin-4-yl)cyclohex-3-ene-1-carbonitrile]
0.1 to 100	0.1 to 100	N#CC1CCN(c2c(-c3ccc4c(c3)NC(=O)C4)cnc3[nH]ccc23)CC1 [Compound P-0189, 1-(5-(2-oxoindolin-6-yl)-1H-pyrrolo[2,3-b]pyridin-4-yl)piperidine-4-carbonitrile]
100 to 1000	100 to 1000	Cn1cc(-c2ccc(-c3cnc4[nH]ccc4c3N3CCC4(CCNC4=O)CC3)cc2)cn1 [Compound P-0271, 8-(5-(4-(1-methyl-1H-pyrazol-4-yl)phenyl)-1H-pyrrolo[2,3-b]pyridin-4-yl)-2,8-diazaspiro[4.5]decan-1-one]
0.1 to 100	0.1 to 100	Cn1cc(-c2ccc(-c3cnn4cccc(C#CC(C)(C)C(N)=O)c34)cc2)cn1 [Compound P-0295, 2,2-dimethyl-4-(3-(4-(1-methyl-1H-pyrazol-4-yl)phenyl)pyrazolo[1,5-a]pyridin-4-yl)but-3-ynamide]
0.1 to 100	0.1 to 100	Cc1ccc2cc(-c3cnn4ccnc(C5=CCC(C(N)=O)CC5)c34)ccc2n1 (centres unmarked) [Compound P-0153, 4-(3-(2-methylquinolin-6-yl)pyrazolo[1,5-a]pyrazin-4-yl)cyclohex-3-ene-1-carboxamide]

IC50 [1] [nM]	IC50 [2] [nM]	SMILES
0.1 to 100	0.1 to 100	COc1ccc2cc(-c3cnn4cccc(C5CCC(C#N)CC5)c34)ccc2n1 (centres unmarked) [Compound P-0195, 4-(3-(2-methoxyquinolin-6-yl)pyrazolo[1,5-a]pyridin-4-yl)cyclohexane-1-carbonitrile]
0.1 to 100	100 to 1000	CC(C)(O)Cn1cc2cc(-c3cnc4[nH]ccc4c3C3=CCC(C#N)CC3)ccc2n1 (centres unmarked) [Compound P-0112, 4-(5-(2-(2-hydroxy-2-methylpropyl)-2H-indazol-5-yl)-1H-pyrrolo[2,3-b]pyridin-4-yl)cyclohex-3-ene-1-carbonitrile]
100 to 1000	1000 to 10000	N#CC1CCC(c2cccn3ncc(-c4ccc5cc(C(=O)O)ccc5c4)c23)CC1 (centres unmarked) [Compound P-0193, 6-(4-(4-cyanocyclohexyl)pyrazolo[1,5-a]pyridin-3-yl)-2-naphthoic acid]
100 to 1000	100 to 1000	Cn1cc(-c2ccc(-c3cnn4cccc(C#CC(C)(C)NS(C)(=O)=O)c34)cc2)cn1 [Compound P-0308, N-(2-methyl-4-(3-(4-(1-methyl-1H-pyrazol-4-yl)phenyl)pyrazolo[1,5-a]pyridin-4-yl)but-3-yn-2-yl)methanesulfonamide]
1000 to 10000	1000 to 10000	N#CC1C2CCC1CN(c1cccn3ncc(-c4ccc(Cl)cc4)c13)C2 (centres unmarked) [Compound P-0161, 3-(3-(4-chlorophenyl)pyrazolo[1,5-a]pyridin-4-yl)-3-azabicyclo[3.2.1]octane-8-carbonitrile]
0.1 to 100	0.1 to 100	CCCS(=O)(=O)Nc1ccc2cc(-c3cnn4ccnc(C5=CCC(C#N)CC5)c34)ccc2n1 (centres unmarked) [Compound P-0094, N-(6-(4-(4-cyanocyclohex-1-en-1-yl)pyrazolo[1,5-a]pyrazin-3-yl)quinolin-2-yl)propane-1-sulfonamide]
0.1 to 100	0.1 to 100	N#CC1CCC(c2nccn3ncc(-c4ccc(-c5cnn(CC6CC6)c5)cc4)c23)CC1 (centres unmarked) [Compound P-0020, (1s,4s)-4-(3-(4-(1-(cyclopropylmethyl)-1H-pyrazol-4-yl)phenyl)pyrazolo[1,5-a]pyrazin-4-yl)cyclohexane-1-carbonitrile]
0.1 to 100	0.1 to 100	CS(=O)(=O)Cn1cc(-c2ccc(-c3cnn4ccnc(C5CCC(C#N)CC5)c34)cc2)cn1 (centres unmarked) [Compound P-0023, (1s,4s)-4-(3-(4-(1-((methylsulfonyl)methyl)-1H-pyrazol-4-yl)phenyl)pyrazolo[1,5-a]pyrazin-4-yl)cyclohexane-1-carbonitrile]
0.1 to 100	100 to 1000	Cn1cc(-c2ccc(-c3cnn4cccc(C#CC(C)(C)N)c34)cc2)cn1 [Compound P-0309, 2-methyl-4-(3-(4-(1-methyl-1H-pyrazol-4-yl)phenyl)pyrazolo[1,5-a]pyridin-4-yl)but-3-yn-2-amine]
0.1 to 100	0.1 to 100	CC(C)(O)Cn1cc(-c2ccc(-c3cnn4cccc(C#CC(C)(C)C(N)=O)c34)cc2)cn1 [Compound P-0006, 4-(3-(4-(1-(2-hydroxy-2-methylpropyl)-1H-pyrazol-4-yl)phenyl)pyrazolo[1,5-a]pyridin-4-yl)-2,2-dimethylbut-3-ynamide]
0.1 to 100	0.1 to 100	Cn1cc(C#Cc2cnc3cccc(N4CCC5(CC4)C(=O)Nc4ccccc45)n23)cn1 [Compound P-0437, 1′-(3-((1-methyl-1H-pyrazol-4-yl)ethynyl)imidazo[1,2-a]pyridin-5-yl)spiro[indoline-3,4′-piperidin]-2-one]
0.1 to 100	0.1 to 100	Cn1cc(-c2ccc(-c3cnn4ccnc(C5=CCC(C#N)CC5)c34)cc2)cn1 (centres unmarked) [Compound P-0323, 4-(3-(4-(1-methyl-1H-pyrazol-4-yl)phenyl)pyrazolo[1,5-a]pyrazin-4-yl)cyclohex-3-ene-1-carbonitrile]
0.1 to 100	0.1 to 100	NC(=O)C1CCC(c2cccn3ncc(-c4ccc(-c5cnn(C(F)F)c5)cc4)c23)CC1 (centres unmarked) [Compound P-0316, 4-(3-(4-(1-(difluoromethyl)-1H-pyrazol-4-yl)phenyl)pyrazolo[1,5-a]pyridin-4-yl)cyclohexane-1-carboxamide]
0.1 to 100	0.1 to 100	Cc1nnc(-c2ccc(-c3cnn4cccc(C5CCC(C#N)CC5)c34)cc2)o1 (centres unmarked) [Compound P-0140, 4-(3-(4-(5-methyl-1,3,4-oxadiazol-2-yl)phenyl)pyrazolo[1,5-a]pyridin-4-yl)cyclohexane-1-carbonitrile]
0.1 to 100	0.1 to 100	Cc1ccc2cc(-c3cnn4ccnc(C5=CCC(C#N)CC5)c34)ccc2n1 (centres unmarked) [Compound P-0186, 4-(3-(2-methylquinolin-6-yl)pyrazolo[1,5-a]pyrazin-4-yl)cyclohex-3-ene-1-carbonitrile]
